Assay results taken from ChEMBL document CHEMBL3885861, “Open TG-GATES”.

Species on record: Rattus norvegicus
Assay: Open TG-GATES - Regimen: Single
Type: toxicity, organism-based, Sprague-Dawley
Set-up: regimen Single, gender Male, age 6 weeks
Conditions: in vivo, po, 200 mg/kg, route gavage, dose level Middle; for APTT / Bas / Eos / Fbg / Hb / Ht / MCH / MCHC / MCV / Mono / PT / Plat / RBC / Ret / WBC: tissue Blood; for ALT / CRE / DBIL / GLC / IP / K / LDH / Na / PL / RALB / TBIL / TC / TG / TP / gamma-GTP / ALP: tissue Plasma

CCN(CC)C(=S)SSC(=S)N(CC)CC
TERMINAL_BW (3 h): 213.2 g | APTT (3 h): 21.8 s | Bas (3 h): 0% | Eos (3 h): 0.8% | Fbg (3 h): 313.2 mg/dL | Hb (3 h): 13.4 g/dL | Ht (3 h): 41.1% | MCH (3 h): 20.2 pg | MCHC (3 h): 32.6% | MCV (3 h): 62.1 fL | Mono (3 h): 4.2% | PT (3 h): 16.2 s | Plat (3 h): 124 x10_4/uL | RBC (3 h): 662.4 x10_4/ul | Ret (3 h): 7.4% | WBC (3 h): 77.1 x10_2/uL | ALT (3 h): 40.6 IU/L | CRE (3 h): 0.1 mg/dL | DBIL (3 h): 0 mg/dL | GLC (3 h): 181.2 mg/dL | IP (3 h): 9.4 mg/dL | K (3 h): 4.1 meq/L | LDH (3 h): 215.4 IU/L | Na (3 h): 142 meq/L | PL (3 h): 147.8 mg/dL | RALB (3 h): 3.2 g/dL | TBIL (3 h): 0.004 mg/dL | TC (3 h): 80.8 mg/dL | TG (3 h): 84.2 mg/dL | TP (3 h): 5.7 g/dL | gamma-GTP (3 h): 1 IU/L | TERMINAL_BW (6 h): 210.4 g | APTT (6 h): 22.1 s | Bas (6 h): 0% | Eos (6 h): 0.4% | Fbg (6 h): 299.4 mg/dL | Hb (6 h): 13 g/dL | Ht (6 h): 40.2% | MCH (6 h): 20.2 pg | MCHC (6 h): 32.3% | MCV (6 h): 62.4 fL | Mono (6 h): 2.2% | PT (6 h): 15.9 s | Plat (6 h): 123.4 x10_4/uL | RBC (6 h): 644.6 x10_4/ul | Ret (6 h): 7.2% | WBC (6 h): 67.3 x10_2/uL | ALP (6 h): 1309.6 IU/L | ALT (6 h): 37.2 IU/L | CRE (6 h): 0.1 mg/dL | DBIL (6 h): 0.004 mg/dL | GLC (6 h): 194 mg/dL | IP (6 h): 9.6 mg/dL | K (6 h): 4.1 meq/L | LDH (6 h): 192 IU/L | Na (6 h): 141 meq/L | PL (6 h): 125.4 mg/dL | RALB (6 h): 3.1 g/dL | TBIL (6 h): 0.012 mg/dL | TC (6 h): 73.2 mg/dL | TG (6 h): 33 mg/dL | TP (6 h): 5.4 g/dL | gamma-GTP (6 h): 0.8 IU/L | TERMINAL_BW (9 h): 213.7 g | APTT (9 h): 22.8 s | Bas (9 h): 0% | Eos (9 h): 0.6% | Fbg (9 h): 297 mg/dL | Hb (9 h): 13.1 g/dL | Ht (9 h): 40.6% | MCH (9 h): 20 pg | MCHC (9 h): 32.3% | MCV (9 h): 61.8 fL | Mono (9 h): 2% | PT (9 h): 15.9 s | Plat (9 h): 119.2 x10_4/uL | RBC (9 h): 659 x10_4/ul | Ret (9 h): 7.8% | WBC (9 h): 81.1 x10_2/uL | ALP (9 h): 1366 IU/L | ALT (9 h): 34.6 IU/L | CRE (9 h): 0.1 mg/dL | DBIL (9 h): 0.012 mg/dL | GLC (9 h): 195 mg/dL | IP (9 h): 9.1 mg/dL | K (9 h): 4.1 meq/L | LDH (9 h): 141.2 IU/L | Na (9 h): 140.6 meq/L | PL (9 h): 137.8 mg/dL | RALB (9 h): 3.2 g/dL | TBIL (9 h): 0.02 mg/dL | TC (9 h): 80.4 mg/dL | TG (9 h): 46.8 mg/dL | TP (9 h): 5.5 g/dL | gamma-GTP (9 h): 0.8 IU/L | TERMINAL_BW (24 h): 216 g | APTT (24 h): 22 s | Bas (24 h): 0% | Eos (24 h): 0.4% | Fbg (24 h): 301.2 mg/dL | Hb (24 h): 13 g/dL | Ht (24 h): 39.9% | MCH (24 h): 20 pg | MCHC (24 h): 32.5% | MCV (24 h): 61.6 fL | Mono (24 h): 2.4% | PT (24 h): 16.6 s | Plat (24 h): 111.9 x10_4/uL | RBC (24 h): 649.2 x10_4/ul | Ret (24 h): 6.6% | WBC (24 h): 91.8 x10_2/uL | ALP (24 h): 1198.6 IU/L | ALT (24 h): 38.4 IU/L | CRE (24 h): 0.1 mg/dL | DBIL (24 h): 0.004 mg/dL | GLC (24 h): 170 mg/dL | IP (24 h): 7 mg/dL | K (24 h): 4.1 meq/L | LDH (24 h): 160.6 IU/L | Na (24 h): 142.2 meq/L | PL (24 h): 131.6 mg/dL | RALB (24 h): 2.9 g/dL | TBIL (24 h): 0.012 mg/dL | TC (24 h): 80.8 mg/dL | TG (24 h): 83 mg/dL | TP (24 h): 5.3 g/dL | gamma-GTP (24 h): 1.2 IU/L
